# Test results reported in ChEMBL document CHEMBL4825690, “Synthesis and biological evaluation of chalcone-polyamine conjugates as novel vectorized agents in colorectal and prostate cancer chemotherapy” (Eur J Med Chem, 2021).
# Tests used:
# Format in all cases: functional, cell-based
# PC-3 = assay: Antiproliferative activity against human PC3 cells assessed as reduction in cell viability incubated for 48 hr by MTT assay; details: PC-3, 48 h
# DU-145 = assay: Antiproliferative activity against human DU145 cells assessed as reduction in cell viability incubated for 48 hr by MTT assay; details: DU-145, 48 h
# HT-29 = assay: Antiproliferative activity against human HT29 cells assessed as reduction in cell viability incubated for 48 hr by MTT assay; details: HT-29, 48 h
# HCT-116 = assay: Antiproliferative activity against human HCT116 cells assessed as reduction in cell viability incubated for 48 hr by MTT assay; details: HCT-116, 48 h
IC50 (PC-3),IC50 (DU-145),IC50 (HT-29),IC50 (HCT-116),SMILES
14 µM,10.8 µM,> 40 µM,11.8 µM,COc1cc(C(=O)/C=C/c2ccc(OCCCNCCCNCCCCNCCCN)cc2)cc(OC)c1OC
20.4 µM,10.2 µM,13.7 µM,21.9 µM,COc1cc(C(=O)/C=C/c2ccc(OCCCNCCCN)cc2)cc(OC)c1OC
20.1 µM,8.4 µM,20.2 µM,12.4 µM,COc1cc(C(=O)/C=C/c2ccc(OCCCNCCCCN)cc2)cc(OC)c1OC
32.6 µM,20.6 µM,31.8 µM,20.3 µM,COc1cc(C(=O)/C=C/c2ccc(OCCCNCCCCNCCCN)cc2)cc(OC)c1OC
